# Measured values taken from the supplement of paper PMC2824726.
# Values joined by “and” are separate entries in the source; they are usually repeats but may differ in a detail not shown here. Equal entries are not always repeated.
# Tested on: MDA-MB-231
# Experiment: shRNA barcode abundance ratio t_end/t_zero (depletion over 4 weeks of proliferation) (log2 ratio); higher = less depletion (weaker anti-proliferative effect of the shRNA)
# Details: time after t zero 28 days
# Experimental: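 Pooled lentiviral negative-selection screen of 305 pGIPZ shRNAs (Open Biosystems V2LHS clones; the 21-nt half-hairpin sense stem is embedded in a mir-30 scaffold) in MDA-MB-231 breast carcinoma cells, infected at MOI 0.3 with 0.5 ug/ml puromycin selection. Barcode abundance was read on barcode tiling microarrays (six 25-nt probes per 60-nt barcode) at t_zero (5 days post-infection) and t_end (33 days; 28 days of culture after t_zero). Values are median-normalised t_end/t_zero signal ratios, averaged over the tiling probes that passed a 10-fold background filter, from three biological replicates.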
row,Sequence,shRNA barcode abundance ratio t end/t zero (log2)
1,CGCTACTTCCTCCTCAAGAAT (targeted gene: AKT1),0.372
2,GGAGTGCTCATTGTGAAGAAA (targeted gene: SORT1),-0.0388
3,GGCAGCTTCCTTGAACCATTA (targeted gene: SPHK1),-0.334
4,TCAAATTGCGGCACATGTCAT (targeted gene: CD40LG),-0.0903
5,CCCGTATGTGTCAACACCTAT (targeted gene: CRTAC1),-0.136
6,GCCTACTTTCACACTAAGAAA (targeted gene: CASP8),-0.242
7,GCGTGCCATGACAAAGGATAA (targeted gene: HSPA8),-0.885
8,GCCGTTAACTAGGTTAATAAA (targeted gene: FANCF),-0.0468
9,GCACATCCTTGCTAATTTCAA (targeted gene: TPT1),0.0219
10,ACGCTGATCGAGAATGGAGAA (targeted gene: NUP62),-0.334
11,CCTCACCCTGTACCAGTCCAA (targeted gene: GSTP1),-0.648
12,GCTGGACAACTTGTTGTTAAA (targeted gene: IL10),0.168
13,GCGCGAGTTCGCTTCTAATAT (targeted gene: GSX1),0.174
14,AGCATTGTCATGAGCTTAATA (targeted gene: API5),0.169
15,GCTCACTACCAAATGTTAATA (targeted gene: BAD),0.223
16,CCATATGTTCATTACATACAT (targeted gene: FANCF),0.17
17,GGTAAAGATGGCAAACAATAT (targeted gene: IL7),0.391
18,CGCCTTTCCTTAAGGAACAAA (targeted gene: NAIP),0.0933
19,GGAGTGAGATTGATCTGTTTA (targeted gene: ANXA5),-0.0616
20,GGCCATTATGCACAGGTTGAA (targeted gene: CD40LG),0.119
21,GGATAGACTGGTCTAGAATAA (targeted gene: RALBP1),0.174
22,GCTGTGGTTAATTACACATTA (targeted gene: ACVR1),-0.208

row,Sequence,shRNA barcode abundance ratio t end/t zero (log2)
1,GGCATTAGTTTCTCAGTTAAA (targeted gene: MLH1),0.141
2,CCTTTGAACTTGATTGCCTAT (targeted gene: SFRP1),-0.127
3,GGCATCAGATGAATTGTTAAT (targeted gene: IL3),0.161
4,GCACTTGCCTTTAAACTATGT (targeted gene: NFIA),0.384
5,CCTCACTTTCTCCAAGAAGTT (targeted gene: MAPK8IP2),0.0658
6,GCACAACCAGTTCTGCAATAT (targeted gene: TAX1BP1),0.565
7,CCAATGATGCTGCTCAAGTTA (targeted gene: ABCB1),0.272
8,GCAGCTTCCTTGAACCATTAT (targeted gene: SPHK1),-0.397
9,CCTTGCTGTTGTGAAATCTAT (targeted gene: ANXA5),-0.252
10,GATCCTAAGATGTGTTCTTAT (targeted gene: CYP1B1),0.664
11,CCTTCGCCAGATCACTGTTAA (targeted gene: PRDX2),0.234
12,CCTTCCAGAGTTATGGAAATT (targeted gene: BCL2A1),0.456
13,GCATCATGCCTTCTGAATAAA (targeted gene: CLN3),0.486
14,GGACTCTCTTCTAGAGCCATA (targeted gene: BCL2L2),0.635
15,GGTCTTACTGAAGTAACACAA (targeted gene: TAX1BP1),0.346
16,GCACAGCATCAAACCAAGTTA (targeted gene: MLH1),0.165
17,CGAGTTTGTGGACTCCTTTAA (targeted gene: BAD),-0.185
18,GGCTACAGCCTCGATTTATAT (targeted gene: IGFBP3),0.0568
19,GCAAATGGAATCTTTATGAAA (targeted gene: MALT1),0.375
20,TGTTAACAAATGTGGCAATTA (targeted gene: TPT1),0.164
21,GGCCATGCCTGTTTACAAGAA (targeted gene: TP73),-0.24
22,TCCAATTAACTTCTCCATAAT (targeted gene: MTL5),0.712

row,Sequence,shRNA barcode abundance ratio t end/t zero (log2)
1,ACAGATATTTACTTCTGCAAA (targeted gene: CD28),0.143
2,GCTCTTCATCAGGAGAAATAA (targeted gene: OPA1),0.0963
3,CCAGCGATGAAGAATGTGGAA (targeted gene: CFLAR),-0.0627
4,GGATGCTTCTGAATAGAAATA (targeted gene: BIRC7),0.0929
5,TCAATCAAAGGGAAACTTGAA (targeted gene: TPT1),-0.105
6,GCGTTTAAGGTGAGCATAAAT (targeted gene: CYP1B1),-0.142
7,ACTGCTGTACTGGTTTGCAAA (targeted gene: BNIP2),0.104
8,CGTCGTAATCACCACACTGAA (targeted gene: CDH1),0.11
9,CCAAATTGTGTTTGATGGATT (targeted gene: ESR1),0.202
10,TCTCTTAAAGTTGATATCTTA (targeted gene: TNFAIP3),0.213
11,CCACCCTGAGCCATTATCTAA (targeted gene: PSEN1),0.146
12,TCACACTGGTTCTCAATGAAA (targeted gene: BAG1),0.198
13,CCATGTAATGGCAGTTATATT (targeted gene: HMGB1),0.175
14,GGCTACTATGACCAATAGAAG (targeted gene: BFAR),0.107
15,GCCTTGGAACTGATGAAGATA (targeted gene: ANXA1),0.483
16,ACCCATTCTTCCCGTTCTTAA (targeted gene: HDAC1),0.135
17,CGGACCTTAGTGAATATAAAT (targeted gene: OPA1),-0.0398
18,GCAGTAGCCTTGATAGATTAT (targeted gene: BIRC6),-0.00928
19,CCTGTCAATATTGATGACTTG (targeted gene: BRAF),0.319
20,CCCGGGACTCCTGAGAACAAT (targeted gene: PRLR),-0.387
21,CCTCCGTCCCTCCTACCATAA (targeted gene: MYBL2),0.0727
22,GGACATGACAACTCATCTCAT (targeted gene: IL6),0.175

row,Sequence,shRNA barcode abundance ratio t end/t zero (log2)
1,CCTTTCTCCAAACCCTCTTAA (targeted gene: BIRC2),0.28
2,GCTGAGACAACGTACGACAAA (targeted gene: GDNF),-0.263
3,CCTCATGTCTTGATAAGTTAA (targeted gene: FOXO1),0.0815
4,CCTTTGAAAGTGGGTGGAATT (targeted gene: TNFAIP3),0.0769
5,GCAGTATAGAGCGTGCAGATA (targeted gene: PTEN),-0.0774
6,GCTTCCTACAGCACAACAAAT (targeted gene: VEGFA),0.437
7,ACTCTAATCTCCACATTTATA (targeted gene: XIAP),0.0933
8,GGTGAAGATATATTCCTCCAA (targeted gene: PTEN),0.129
9,GGATTCTCAACACTTTGAATT (targeted gene: ANXA4),0.244
10,CCAGACTCAGTTCACTGCAAA (targeted gene: MALT1),-0.00481
11,GCGGTTCTTAGAAGAGTACTT (targeted gene: DAD1),-0.432
12,GCTGGCAATTACCAGAACAAT (targeted gene: WRN),0.0875
13,CCTAGAAGCATTTATGATTTA (targeted gene: BCL2L2),0.344
14,GGTGTCTTTACCAAACTTATT (targeted gene: HSPA9),-0.751
15,GCCTATATCAGCAATTGTCAT (targeted gene: ATM),-0.178
16,GAACTAGATCTGTTGCTTAAT (targeted gene: AVEN),0.231
17,CCGTGCTAACTGTGTGTACAT (targeted gene: PEA15),-1.15
18,CCTTAAATCCTCATTGCAAAT (targeted gene: USP9X),-0.782
19,GCATCAGATGATTTGTCATTA (targeted gene: BIRC2),0.0467 and 0.133
20,GCCAATATTGTGTTTGGATAT (targeted gene: MALT1),0.354
